Our source for the target mRNA inhibition values is the OligoGym collection.

Where “and” joins values, the source holds several entries; their conditions need not be identical. Equal entries are not always repeated. After the bases stand the sugars from the 5' end (letter, count) and the backbone: PS all phosphorothioate, else s phosphorothioate and o phosphodiester by linkage. Methylation of C is not given here. e = 2'-O-(2-methoxyethyl) (MOE); k = constrained ethyl (cEt); d = 2'-deoxy (DNA)

The target in one data set is IRF4. As to conditions: ASO, MM.1R, 0.0625 µM.
With ACCATATTGGAAACCA (sugars k3 d10 k3, PS), the target mRNA inhibition was -12%. Same read-out and setting: then TCTGTATAGTTCTCAA (sugars k3 d10 k3, PS), with -2% and 0%; and “GGTTGGCTGGTCTTTG (sugars kkdddddddddekeke, PS)”, with 34%; and CATGGTATTTTTCCGT (sugars k3 d10 k3, PS), with 4%.

The same data set, now with this note: ASO, MM.1R, 0.074 µM.
Consider ACCATATTGGAAACCA (sugars k3 d10 k3, PS), for which the target mRNA inhibition was -11%.

Staying with this data set, now noted: ASO, MM.1R, 0.222 µM.
As for ACCATATTGGAAACCA (sugars k3 d10 k3, PS), the target mRNA inhibition is -18%.

The same data set, now with this note: ASO, MM.1R, 0.25 µM.
As to ACCATATTGGAAACCA (sugars k3 d10 k3, PS), the target mRNA inhibition was -6%. On the same count and under the same terms, with TCTGTATAGTTCTCAA (sugars k3 d10 k3, PS) the figure was 16% and 26%; with “GGTTGGCTGGTCTTTG (sugars kkdddddddddekeke, PS)”, 47%. On the same count and under the same terms, with CATGGTATTTTTCCGT (sugars k3 d10 k3, PS) the figure was 36%.

The data set is the same for the next values; noted with them: ASO, MM.1R, 0.666 µM.
As for ACCATATTGGAAACCA (sugars k3 d10 k3, PS), the target mRNA inhibition was -1%.

The data set is the same for the next values; noted with them: ASO, MM.1R, 1 µM.
On to AGCTCAATAATCTCCC (sugars k3 d10 k3, PS), for which the target mRNA inhibition amounted to 6%. Same read-out and setting: then CAGCATTGGACCCACG (sugars k3 d10 k3, PS), with 4%.

“ACCTCAGTTTGTGAAG (sugars kkdddddddddkdkdk, PS)”: the target mRNA inhibition was -3%. As to GACCATCTGATCCGGA (sugars k3 d10 k3, PS), the target mRNA inhibition is 2%. Same read-out and setting: with AGATACAAAACGGACT (sugars k3 d10 k3, PS) the figure was -15%; with AGCGACCCAAATGTGG (sugars k3 d10 k3, PS), -2%. The same measure, in the same setting: with CGCCCATGAGTTGAAA (sugars k3 d10 k3, PS) the figure was 13%; with CTTGGCTGTGGGATGC (sugars k3 d10 k3, PS), 21%; with “TAGTATGAGAAACGGC (sugars k3 d9 k3 e1, PS)”, 48%. On the same count and under the same terms, then “AGTTGTAAATGAGTCG (sugars kkdddddddddkdkdk, PS)”, with 39%.

For the sequence ACCATATTGGAAACCA (sugars k3 d10 k3, PS), the target mRNA inhibition was 3%. On the same count and under the same terms, with TCTGTATAGTTCTCAA (sugars k3 d10 k3, PS) the figure was 42% and 40%. Same read-out and setting: then “ACTGTTACCGATGCTT (sugars kkdddddddddekeke, PS)”, with 23% and 37%; and “GGTTGGCTGGTCTTTG (sugars kkdddddddddekeke, PS)”, with 73% and 66%.

Take TAACCGGTAGAGTGAG (sugars k3 d10 k3, PS): the target mRNA inhibition is 27%. Still for that read-out and setting: then “TCAGTTTGTGAAGCAT (sugars kkddddddddddkeke, PS)”, with 33%; and “CCTCAGTTTGTGAAGC (sugars k3 d9 k3 e1, PS)”, with 2%.

On to “TGTGTATTACTCTTAG (sugars kkdddddddddekeke, PS)”, for which the target mRNA inhibition was 54% and 66%.

As for TAGGTAAGATCTCCAT (sugars k3 d10 k3, PS), the target mRNA inhibition was 35% and 33%. Turning to CGTAGTCACGCAATGG (sugars k3 d10 k3, PS), the target mRNA inhibition was determined as 15%. Turning to “GATGTGATAGCTGAGC (sugars kddddddddddkekek, PS)”, the target mRNA inhibition worked out at 50%. For “TACTGCTTGAGGTTTT (sugars kkdddddddddkekek, PS)”, the target mRNA inhibition came out at 22%. Same read-out and setting: then “ATGTGTATTACTCTTA (sugars kdddddddddkekeke, PS)”, with 36% and 49%; and CCACACAAGTCTTAGG (sugars k3 d10 k3, PS), with 15%; and GGCCATTCGAGGTGAT (sugars k3 d10 k3, PS), with 1%.

For the sequence CATGGTATTTTTCCGT (sugars k3 d10 k3, PS), the target mRNA inhibition is 38% and 48%. As for “CTGTTACCGATGCTTC (sugars kkdddddddddkekek, PS)”, the target mRNA inhibition was 52% and 44%. The same measure, in the same setting: then TCCGAAAAGACTGGAG (sugars k3 d10 k3, PS), with -7%; and AGAGACGCGGTGAGAG (sugars k3 d10 k3, PS), with -20%; and “GACAGTGACTTGCATC (sugars k2 d9 e3 k2, PS)”, with 24%. GAGTTGTACAGGACAG (sugars k3 d10 k3, PS): the target mRNA inhibition was 51% and 52%.

The same data set, now with this note: ASO, MM.1R, 2 µM.
For the sequence ACCATATTGGAAACCA (sugars k3 d10 k3, PS), the target mRNA inhibition is 13%.

Staying with this data set, now noted: ASO, MM.1R, 4 µM.
For the sequence ACCATATTGGAAACCA (sugars k3 d10 k3, PS), the target mRNA inhibition amounted to 34%. The same measure, in the same setting: then TCTGTATAGTTCTCAA (sugars k3 d10 k3, PS), with 69% and 71%; and “GGTTGGCTGGTCTTTG (sugars kkdddddddddekeke, PS)”, with 84%. The same measure, in the same setting: then CATGGTATTTTTCCGT (sugars k3 d10 k3, PS), with 66%.

The data set is the same for the next values; noted with them: ASO, SK-MEL-28, 4 µM.
Take TGATAGTGGTGATGTC (sugars k3 d10 k3, PS): the target mRNA inhibition stood at 54%. Turning to GGCAGTGGAGCTCCAC (sugars k3 d10 k3, PS), the target mRNA inhibition came to 73%. For CCCTAAGTTTAATTTA (sugars k3 d10 k3, PS), the target mRNA inhibition was -3%. ACCATGTTCCTGAAGA (sugars k3 d10 k3, PS): the target mRNA inhibition stood at 44%.

In the case of GACCAGCTTTTTCAAA (sugars k3 d10 k3, PS), the target mRNA inhibition came out at 38%.

CTACAGATCTCAGCAA (sugars k3 d10 k3, PS): the target mRNA inhibition came to 18%.

Regarding AACACTTGGAGAAGTC (sugars k3 d10 k3, PS), the target mRNA inhibition came to 43%. Still for that read-out and setting: then TAGCATTATCTACCTC (sugars k3 d10 k3, PS), with 66%; and AGGCACATGAGAAATC (sugars k3 d10 k3, PS), with 23%; and TGCAACTGGCTCACTA (sugars k3 d10 k3, PS), with 17%.

For the sequence TCCCAAGATCGAGCGG (sugars k3 d10 k3, PS), the target mRNA inhibition was 16%. On the same count and under the same terms, then GGCGCGCTCCCTTCCC (sugars k3 d10 k3, PS), with 10%; and TAACGGTGTTTCAGAA (sugars k3 d10 k3, PS), with 26%.

With TTAAAGAGCGCATTTC (sugars k3 d10 k3, PS), the target mRNA inhibition was 41%. Still for that read-out and setting: with CAACAGTGCCAGAGCA (sugars k3 d10 k3, PS) the figure was 11%; with CATCACTCTAGTCAGT (sugars k3 d10 k3, PS), 59%; with ACCATATTGGAAACCA (sugars k3 d10 k3, PS), 74%.

Turning to CCACTGGCGGAGCTTC (sugars k3 d10 k3, PS), the target mRNA inhibition came out at 36%. Same read-out and setting: then GATGTATACCAACGAC (sugars k3 d10 k3, PS), with 68%; and GCGCGGAGGACCTCGC (sugars k3 d10 k3, PS), with 10%; and TAGTAGACCACAGTGA (sugars k3 d10 k3, PS), with 9%. Still for that read-out and setting: then CATTACTAGATTGTAG (sugars k3 d10 k3, PS), with 9%; and GGGAATTTCCATTGGA (sugars k3 d10 k3, PS), with 44%. The same measure, in the same setting: with ACAAAAGGTTCCCGCG (sugars k3 d10 k3, PS) the figure was 3%; with TATTACTCTTAGGCAC (sugars k3 d10 k3, PS), 44%; with CAAGTAATTTTAAGGC (sugars k3 d10 k3, PS), 41%. Consider AGCACCGTGTGGAAAG (sugars k3 d10 k3, PS), for which the target mRNA inhibition was 57%. The same measure, in the same setting: then GGTAAAGGCACATTCC (sugars k3 d10 k3, PS), with 47%.

As to AAGAAACGAGTTGACA (sugars k3 d10 k3, PS), the target mRNA inhibition came out at 22%. On the same count and under the same terms, then GTGAAACAGCAGTTCT (sugars k3 d10 k3, PS), with 62%; and GGTTTATTAGCTTTCT (sugars k3 d10 k3, PS), with -1%. Consider GAGCCTGGGACTCAGG (sugars k4 d8 k4, PS), for which the target mRNA inhibition worked out at 19%. The same measure, in the same setting: then GCGCACTAAGTGGGCT (sugars k3 d10 k3, PS), with -10%; and GGCTCAACCTGGAAGG (sugars k3 d10 k3, PS), with 29%. The same measure, in the same setting: then TGACATGCTTTGTCCT (sugars k3 d10 k3, PS), with 59%. Regarding AGGAACAATCCTGTAC (sugars k3 d10 k3, PS), the target mRNA inhibition was 16%.

On to GCAAGCTGAATGCTCT (sugars k3 d10 k3, PS), for which the target mRNA inhibition stood at 53%. In the case of GAATAGAGGAATGGCG (sugars k3 d10 k3, PS), the target mRNA inhibition came out at 39%. Same read-out and setting: with CGCTCAGGACTCAGGG (sugars k3 d10 k3, PS) the figure was 55%; with TCCAACAGGCGGACAC (sugars k3 d10 k3, PS), 29%; with TGCATCTATAAGATGT (sugars k4 d8 k4, PS), 10%. Same read-out and setting: then CTCTATAGTGTTCCAG (sugars k3 d10 k3, PS), with 66%; and GACAGAAGATCTCTAC (sugars k3 d10 k3, PS), with 17%; and GCATGAGGGTGACACA (sugars k3 d10 k3, PS), with 42%. Same read-out and setting: then TTGAGGTTTTCCTAAA (sugars k3 d10 k3, PS), with 29%; and GGCAAGCTGAATGCTC (sugars k3 d10 k3, PS), with 29%. Take GTAGGTAGGCACCTGT (sugars k3 d10 k3, PS): the target mRNA inhibition amounted to 75%. On the same count and under the same terms, then CTGGAGGTCGAACCTC (sugars k3 d10 k3, PS), with 2%; and GCTCAACCTGGAAGGA (sugars k3 d10 k3, PS), with 25%. As to AAATATCGCCCATGAG (sugars k3 d10 k3, PS), the target mRNA inhibition was determined as 39%.

For TGGCTAGCAGAGGTTC (sugars k4 d8 k4, PS), the target mRNA inhibition is 9%. The same measure, in the same setting: with ACAGGCACGGCTTCAG (sugars k3 d10 k3, PS) the figure was 64%. For the sequence CTAGATAGCATTCTTA (sugars k3 d10 k3, PS), the target mRNA inhibition was 39%. The same measure, in the same setting: then GAGATATAAATAGCTG (sugars k3 d10 k3, PS), with 51%; and CCCAAAGGGCATCCTC (sugars k3 d10 k3, PS), with 41%; and CTGAGATAGGAAGCAC (sugars k3 d10 k3, PS), with 26%.

Turning to GACCACGCCCCTCTCC (sugars k3 d10 k3, PS), the target mRNA inhibition worked out at 55%. The same measure, in the same setting: then GGCAATGGAGTCTCGC (sugars k3 d10 k3, PS), with 50%; and TATCAAGACAAGGAAT (sugars k3 d10 k3, PS), with 7%.
